From article PMC6645248 (ACS Omega, 2018)

Legend:
[1] = molecular target: T1, horseradish peroxidase (HRP) (Armoracia rusticana, UniProt P00433); test: Peroxide-induced inhibition; assay type: biochemical; conditions: [LH-] = 750 μM; [HRP] = 2 μg/mL; pH 9
T1 sequence (P00433 31-338 limits assumed): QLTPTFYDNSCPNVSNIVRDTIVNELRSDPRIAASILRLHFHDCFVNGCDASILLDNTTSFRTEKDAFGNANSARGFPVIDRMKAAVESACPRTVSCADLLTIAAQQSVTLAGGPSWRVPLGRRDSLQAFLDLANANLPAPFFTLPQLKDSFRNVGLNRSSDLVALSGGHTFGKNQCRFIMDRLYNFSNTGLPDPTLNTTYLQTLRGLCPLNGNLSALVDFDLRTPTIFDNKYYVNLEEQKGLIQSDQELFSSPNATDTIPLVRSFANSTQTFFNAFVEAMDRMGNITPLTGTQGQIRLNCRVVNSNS

[2] = molecular target: Cyt c (Equus caballus, UniProt P00004); assay type: biochemical, equine; conditions: for concentration at which an effect on the Cyt c-catalysed reaction starts: [Cyt c] = 15 μg/mL
Chain of Cyt c (P00004 whole entry): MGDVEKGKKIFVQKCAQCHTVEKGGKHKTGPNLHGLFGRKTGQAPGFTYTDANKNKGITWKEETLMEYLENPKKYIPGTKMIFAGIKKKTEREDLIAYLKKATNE

[3] = molecular target: T2, HRP (Armoracia rusticana, UniProt P00433); test: Enhancement of the HRP-catalysed luminol reaction by aromatic hydrogen donors; assay type: biochemical, horseradish; conditions: [H2O2] = 1.1 mM; [LH-] = 750 μM; pH 9
T2 sequence (P00433 31-338 limits assumed): T1 sequence (P00433 31-338 limits assumed)

[4] = molecular target: T2, HRP; conditions: [H2O2] of 17.6 mM; cited from earlier work
[5] = [LH-] = 750 μM, [H2O2] = 1.1 mM, pH 9

IC50 [2]	concentration at which an effect on the Cyt c-catalysed reaction starts [2, 5]	kind of quenching of Cyt c-catalysed luminescence (kinetics) ([2]; [Cyt c] = 20 μg/mL, [LH-] = 750 μM, [H2O2] = 1.1 mM, pH 9)	Structure (SMILES)	protection of HRP against high [H2O2] (shift of peroxide inhibition) [1]	concentration for maximal enhancement of the HRP-catalysed reaction [3]	concentration for maximal enhancement [4]
41 µM	about 10 μM		N[C@@H](CCC(=O)N[C@@H](CS)C(=O)NCC(=O)O)C(=O)O [GSH, glutathione]	does not exert a protective effect on HRP		
	80 µM	permanent luminescence quenching	NC(=O)C1=CN([C@@H]2O[C@H](COP(=O)([O-])OP(=O)([O-])OC[C@H]3O[C@@H](n4cnc5c(N)ncnc54)[C@H](O)[C@@H]3O)[C@@H](O)[C@H]2O)C=CC1.[Na+].[Na+] [NADH, Nicotinamide–adenine–dinucleotide disodium]			
			Oc1ccc(I)cc1 [IP, iodophenol]		around 200 μM	4 mM
